molecular target: T1, Microsomal triglyceride transfer protein (MTP) from human small intestine microsome (Homo sapiens, UniProt P55157); experiment: Inhibition test of interliposomal triglyceride (TG) transfer activity by MTP; type: biochemical; conditions: purified MTP from human small intestine microsome, 37° C., 1.5 hours
T1 construct: Human small intestine microsome was dialyzed against 10 mM phosphate buffer; tissue Tissue Transforming Technologies, Inc; host or cells: human small intestine microsome
T1 sequence (P55157 19-894): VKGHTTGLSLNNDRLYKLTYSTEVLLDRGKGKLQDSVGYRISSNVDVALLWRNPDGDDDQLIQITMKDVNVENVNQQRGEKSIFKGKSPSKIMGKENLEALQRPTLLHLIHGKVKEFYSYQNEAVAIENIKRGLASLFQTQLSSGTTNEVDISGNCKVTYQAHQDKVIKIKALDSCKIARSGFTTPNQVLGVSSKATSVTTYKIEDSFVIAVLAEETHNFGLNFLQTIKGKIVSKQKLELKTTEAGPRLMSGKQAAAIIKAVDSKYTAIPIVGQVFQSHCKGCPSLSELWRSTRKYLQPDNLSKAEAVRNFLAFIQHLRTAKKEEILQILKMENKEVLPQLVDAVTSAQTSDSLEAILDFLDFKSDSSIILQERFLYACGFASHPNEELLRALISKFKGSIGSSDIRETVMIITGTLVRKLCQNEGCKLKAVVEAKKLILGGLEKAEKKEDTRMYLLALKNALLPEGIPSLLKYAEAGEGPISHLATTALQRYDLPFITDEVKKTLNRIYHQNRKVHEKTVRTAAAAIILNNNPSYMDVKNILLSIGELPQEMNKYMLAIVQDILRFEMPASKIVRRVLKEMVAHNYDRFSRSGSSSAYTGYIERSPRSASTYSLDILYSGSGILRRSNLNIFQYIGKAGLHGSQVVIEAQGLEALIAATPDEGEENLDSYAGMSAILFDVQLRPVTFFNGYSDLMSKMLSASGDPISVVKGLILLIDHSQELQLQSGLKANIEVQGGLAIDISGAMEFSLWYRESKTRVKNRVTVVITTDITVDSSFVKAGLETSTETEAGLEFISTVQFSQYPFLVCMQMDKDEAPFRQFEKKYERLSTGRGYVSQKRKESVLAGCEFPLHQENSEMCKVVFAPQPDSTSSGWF
T1 sequence (P07237 18-508 partner): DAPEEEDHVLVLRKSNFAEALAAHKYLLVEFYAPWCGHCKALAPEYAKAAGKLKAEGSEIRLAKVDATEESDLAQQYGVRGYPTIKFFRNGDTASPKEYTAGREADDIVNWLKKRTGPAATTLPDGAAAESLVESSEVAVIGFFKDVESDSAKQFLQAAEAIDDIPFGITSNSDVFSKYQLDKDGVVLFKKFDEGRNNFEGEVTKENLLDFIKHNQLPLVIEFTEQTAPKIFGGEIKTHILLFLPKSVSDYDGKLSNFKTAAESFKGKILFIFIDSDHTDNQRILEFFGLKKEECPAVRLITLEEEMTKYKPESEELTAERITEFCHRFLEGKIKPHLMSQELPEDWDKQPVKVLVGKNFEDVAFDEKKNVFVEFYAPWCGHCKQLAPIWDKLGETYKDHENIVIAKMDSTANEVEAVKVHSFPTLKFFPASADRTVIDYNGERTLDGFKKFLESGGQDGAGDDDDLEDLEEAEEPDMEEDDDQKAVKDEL
Procedure: Microsomal triglyceride transfer protein (MTP) from human small intestine microsome (manufactured by Tissue Transforming Technologies, Inc.) was purified in such a way described below. Human small intestine microsome was dialyzed against 10 mM phosphate buffer (300 mL, pH 6.8) twice for about 2 hours and once for further not less than 12 hours, at about 4° C. After dialysis, the mixture was centrifuged at 4° C. and 15,000×g for 5 minutes and then the supernatant was recovered. The previously recovered supernatant was purified by column chromatography on diethylaminoethyl (DEAE) Sepharose using FPLC (Fast Performance Liquid Chromatography) system, and the purified MTP was used for the test as described below.
Small unilamellar-vesicle (SUV) liposome (hereinafter described as donor, containing 0.25% (mol/mol) triolein and 5% (mol/mol) cardiolipin) constituted by triolein labeled with ^14C and non-labeled SUV liposome (hereinafter described as acceptor, containing […] triolein) were prepared in such a way described below.
Firstly, in order to prepare the donor, there were volatilized under a stream of nitrogen gas a phosphatidylcholine solution containing phosphatidylcholine labeled with ^3H, a cardiolipin solution, and a triolein solution containing triolein labeled with ^14C (each solution had been already dissolved in an appropriate organic solvent), or in order to prepare the acceptor, there were volatilized under nitrogen flow a phosphatidylcholine solution containing phosphatidylcholine labeled with ^3H and a cardiolipin solution (each solution had been already dissolved in an appropriate organic solvent). An appropriate amount of a reaction buffer (15 mM Tris-HCl buffer containing 1 mM EDTA.Na2, 40 mM NaCl, and 0.5% (w/v) bovine serum albumin, pH 7.4) was added thereto to be emulsified. The emulsions were treated with ultrasonication under ice-cooling and centrifuged at 4° C. and 159,000×g for 2 hours. Each of the resulting supernatant was used for donor or acceptor.
Each radioactivity in the acceptor and the donor was measured by liquid scintillation counter, and a mixed solution of the acceptor and the donor was prepared with a reaction buffer so as to be a donor-derived radioactivity of 16,000 dpm/400 μL and a acceptor-derived radioactivity of 4,000 dpm/[…]. 400 μL of the mixed solution of the donor and the acceptor, 45 μL of the reaction buffer, 50 μL of MTP (20 μg/mL), and 5 μL of a sample dissolved in DMSO (dimethyl sulfoxide) or 5 μL of DMSO was mixed (total amount: 500 μL). The mixture was incubated at 37° C. for 1.5 hours. After completion of the incubation, 1.25 mL of a suspension of DEAE cellulose (66.7% (v/v)) in 15 mM Tris-HCl buffer (pH 7.4) containing 1 mM EDTA.Na2 was added to the above solution. The mixture was centrifuged to separate the donor (adsorbed on the DEAE cellulose to precipitate) and the acceptor (the supernatant). The radioactivity in the acceptor was measured by liquid scintillation counter. The value obtained by subtracting the radioactivity in a blank group from the radioactivity in the acceptor of a DMSO group was determined as MTP-mediated TG transfer activity, and it was compared with the value obtained by subtracting the radioactivity in the blank group from the radioactivity in a sample group. Here, the blank was prepared by adding 10 mM phosphate buffer (pH 6.8) containing 250 mM NaCl in place of MTP. Inhibition rate (%) was calculated from values obtained according to the following equation. Inhibition rate(%)=(1 minus((radioactivity of sample group minus radioactivity of blank group)/(radioactivity of DMSO group minus radioactivity of blank group)))×100.
50% Inhibition rate (IC50) was determined on the basis of the above equation.

SMILES	IC50 [nM]
COC(=O)c1cc(C)c(OC(=O)CCCc2ccc(NC(=O)c3ccc(C)nc3-c3ccc(C(F)(F)F)cc3)c(C(=O)N(C)C)c2)c(OC)c1 [Compound 1-46, 4-[4-(3-dimethylcarbamoyl-4-{[6-methyl-2-(4-trifluoromethylphenyl)pyridine-3-carbonyl]amino}phenyl)butyryloxy]-3-methoxy-5-methylbenzoic acid methyl ester]	< 10
COC(=O)c1ccc(OC(=O)CN(C)Cc2ccc(NC(=O)c3ccccc3-c3ccc(C(F)(F)F)cc3)c(C(=O)N(C)C)c2)cc1 [Compound 2-1, 4-[2-({3-dimethylcarbamoyl-4-[(4′-trifluoromethylbiphenyl-2-carbonyl)amino]benzyl}methylamino)acetoxy]benzoic acid methyl ester]	10 to 100
COC(=O)c1cc(C(=O)OC(C)C)ccc1OC(=O)CCCc1ccc(NC(=O)c2ccc(C)nc2-c2ccc(C(F)(F)F)cc2)c(C(=O)N(C)C)c1 [Compound 1-72, 4-[4-(3-dimethylcarbamoyl-4-{[6-methyl-2-(4-trifluoromethylphenyl)pyridine-3-carbonyl]amino}phenyl)butyryloxy]isophthalic acid 1-isopropyl ester 3-methyl ester]	< 10
COc1cc(C(=O)OC(C)C)cc(OC)c1OC(=O)CCCc1ccc(NC(=O)c2ccc(C)nc2-c2ccc(C(F)(F)F)cc2)c(C(=O)N(C)C)c1 [Compound 1-44, 4-[4-(3-dimethylcarbamoyl-4-{[6-methyl-2-(4-trifluoromethylphenyl)pyridine-3-carbonyl]amino}phenyl)butyryloxy]-3,5-dimethoxybenzoic acid isopropyl ester]	< 10
CC(C)OC(=O)c1ccc(OC(=O)CCCc2ccc(NC(=O)c3ccccc3-c3ccc(C(F)(F)F)cc3)c(C(=O)N(C)C)c2)cc1 [Compound 1-7, 4-(4-{3-dimethylcarbamoyl-4-[(4′-trifluoromethylbiphenyl-2-carbonyl)amino]phenyl}butyryloxy)benzoic acid isopropyl ester]	< 10
COc1cc(C(=O)OC(C)C)cc(F)c1OC(=O)CCCc1ccc(NC(=O)c2ccc(C)nc2-c2ccc(C(F)(F)F)cc2)c(C(=O)N(C)C)c1 [Compound 1-38, 4-[4-(3-dimethylcarbamoyl-4-{[6-methyl-2-(4-trifluoromethylphenyl)pyridine-3-carbonyl]amino}phenyl)butyryloxy]-3-fluoro-5-methoxybenzoic acid isopropyl ester]	10 to 100
CCc1cc(C(=O)OC)cc(F)c1OC(=O)CCCc1ccc(NC(=O)c2ccc(C)nc2-c2ccc(C(F)(F)F)cc2)c(C(=O)N(C)C)c1 [Compound 1-42, 4-[4-(3-dimethylcarbamoyl-4-{[6-methyl-2-(4-trifluoromethylphenyl)pyridine-3-carbonyl]amino}phenyl)butyryloxy]-3-ethyl-5-fluorobenzoic acid methyl ester]	< 10
COC(=O)c1cc(OC)c(OC(=O)CCCc2ccc(NC(=O)c3ccc(C)nc3-c3ccc(C(F)(F)F)cc3)c(C(=O)N(C)C)c2)c(C(F)(F)F)c1 [Compound 1-47, 4-[4-(3-dimethylcarbamoyl-4-{[6-methyl-2-(4-trifluoromethylphenyl)pyridine-3-carbonyl]amino}phenyl)butyryloxy]-3-methoxy-5-trifluoromethylbenzoic acid methyl ester]	< 10
Cc1ccc(C(=O)Nc2ccc(CCCC(=O)Oc3ccc(C(=O)OCc4ccccc4)cc3)cc2C(=O)N(C)C)c(-c2ccc(C(F)(F)F)cc2)n1 [Compound 1-80, 4-[4-(3-dimethylcarbamoyl-4-{[6-methyl-2-(4-trifluoromethylphenyl)pyridine-3-carbonyl]amino}phenyl)butyryloxy]benzoic acid benzyl ester]	< 10
CCOc1cc(C(=O)OC)cc(OC)c1OC(=O)CCCc1ccc(NC(=O)c2ccc(C)nc2-c2ccc(C(F)(F)F)cc2)c(C(=O)N(C)C)c1 [Compound 1-49, 4-[4-(3-dimethylcarbamoyl-4-{[6-methyl-2-(4-trifluoromethylphenyl)pyridine-3-carbonyl]amino}phenyl)butyryloxy]-3-ethoxy-5-methoxybenzoic acid methyl ester]	< 10
COC(=O)c1cc(C)c(OC(=O)CCCc2ccc(NC(=O)c3ccc(C)nc3-c3ccc(C(F)(F)F)cc3)c(C(=O)N(C)C)c2)c(C(=O)OC)c1 [Compound 1-110, 4-[4-(3-dimethylcarbamoyl-4-{[6-methyl-2-(4-trifluoromethylphenyl)pyridine-3-carbonyl]amino}phenyl)butyryloxy]-5-methylisophthalic acid dimethyl ester]	< 10
CN(C)C(=O)c1cc(CCCC(=O)Oc2ccc(C(=O)OC3CCc4ccccc43)cc2)ccc1NC(=O)c1ccccc1-c1ccc(C(F)(F)F)cc1 (stereo not shown) [Compound 1-107, 4-[4-(3-dimethylcarbamoyl-4-{(4′-trifluoromethylbiphenyl-2-carbonyl)amino}phenyl)butyryloxy]benzoic acid indan-1-yl ester]	< 10

Other lines, results leading:

IC50 [nM]	SMILES
10 to 100	COC(=O)c1ccc(OC(=O)CCc2ccc(NC(=O)c3ccccc3-c3ccc(C(F)(F)F)cc3)c(C(=O)N(C)C)c2)cc1 [Compound 1-27, 4-(3-{3-dimethylcarbamoyl-4-[(4′-trifluoromethylbiphenyl-2-carbonyl)amino]phenyl}propionyloxy)benzoic acid methyl ester]
< 10	CCCC(=O)c1ccc(OC(=O)CCCc2ccc(NC(=O)c3ccccc3-c3ccc(C(F)(F)F)cc3)c(C(=O)N(C)C)c2)cc1 [Compound 1-93, 4-(3-dimethylcarbamoyl-4-{(4′-trifluoromethylbiphenyl-2-carbonyl)amino}phenyl)butyric acid 4-butyrylphenyl ester]
< 10	CN(C)C(=O)COC(=O)c1ccc(OC(=O)CCCc2ccc(NC(=O)c3ccccc3-c3ccc(C(F)(F)F)cc3)c(C(=O)N(C)C)c2)cc1 [Compound 1-85, 4-[4-(3-dimethylcarbamoyl-4-{(4′-trifluoromethylbiphenyl-2-carbonyl)amino}phenyl)butyryloxy]benzoic acid dimethylcarbamoylmethyl ester]
< 10	COC(=O)c1ccc(-c2nc(C)ccc2C(=O)Nc2ccc(CCCC(=O)Oc3c(C)cc(C(=O)OC)cc3Cl)cc2C(=O)N(C)C)cc1 [Compound 4-1, 3-chloro-4-[4-(3-dimethylcarbamoyl-4-{[2-(4-methoxycarbonylphenyl)-6-methylpyridine-3-carbonyl]amino}phenyl)butyryloxy]-5-methylbenzoic acid methyl ester]
< 10	CCOC(=O)c1cc(C)c(OC(=O)CCCc2ccc(NC(=O)c3ccc(C)nc3-c3ccc(C(F)(F)F)cc3)c(C(=O)N(C)C)c2)c(Cl)c1 [Compound 1-112, 3-chloro-4-[4-(3-dimethylcarbamoyl-4-{[6-methyl-2-(4-trifluoromethylphenyl)pyridine-3-carbonyl]amino}phenyl)butyryloxy]-5-methylbenzoic acid ethyl ester]
< 10	COC(=O)c1cc(OC)c(OC(=O)CCCc2ccc(NC(=O)c3ccc(C)nc3-c3ccc(C(F)(F)F)cc3)c(C(=O)N(C)C)c2)c(OC)c1 [Compound 1-39, 4-[4-(3-dimethylcarbamoyl-4-{[6-methyl-2-(4-trifluoromethylphenyl)pyridine-3-carbonyl]amino}phenyl)butyryloxy]-3,5-dimethoxybenzoic acid methyl ester]
< 10	COC(=O)c1ccc(OC(=O)CCCc2ccc(NC(=O)c3ccc(C)nc3-c3ccc(C(F)(F)F)cc3)c(C(=O)N(C)C)c2)cc1 [Compound 1-13, 4-[4-(3-dimethylcarbamoyl-4-{[6-methyl-2-(4-trifluoromethylphenyl)pyridine-3-carbonyl]amino}phenyl)butyryloxy)benzoic acid methyl ester]

Reference: patent publication US8101774B2, “Ester derivatives and medicinal use thereof” (Japan Tobacco Inc., priority 2004, dated 2012)
